Columns and labels:
[1] = system: endogenous a-syn in SNCA triplication fibroblasts; assay: a-syn immunofluorescence in SNCA triplication fibroblasts; format: cell-based, human
Excerpt: Fig. 6 PDpep1.3 reduces endogenous a-syn levels and rescues lysosomal activity in human PD cell models. A Representative images of fibroblasts from a PD patient with SNCA triplication transduced with Scramble1.3-RFP or PDpep1.3-RFP (scale bars = 10 µm). B Quantification of relative a-syn fluorescence in RFP-positive fibroblasts. Bars represent means ± s.e.m. (one-way ANOVA, F(3, 36) = 6.159; P = 0.0017 followed by Dunnett’s post-test; n = 3). C Endolysosomal flux assay using confocal microscopy in SNCA triplication fibroblasts transduced with AAV-Scramble1.3-RFP or AAV-PDpep1.3-RFP. Cells were treated as indicated with Bafilomycin A1 (Baf). Bars represent means ± s.e.m. (nested one-way ANOVA, F(3, 10) = = 23.70; P < 0.0001 followed by Dunnett’s post-test; n = 3). D Representative images of human iPSC-derived dopaminergic neurons with A53T a-syn mutation or isogenic controls without a-syn mutation. These iPSC-derived dopaminergic neurons were transduced with Scramble1.3-RFP or PDpep1.3-RFP and immunostained with anti-a-syn, anti-TH, or anti-LAMP1 antibodies (scale bars = 5 μm). E Quantification of relative a-syn fluorescence intensity in RFP-positive A53T mutant and control iPSC-derived dopaminergic neurons. Bars represent means ± s.e.m. […] F Quantification of relative LAMP1 fluorescence intensity in RFP-positive A53T mutant and control iPSC-derived dopaminergic neurons. […]

[2] = system: LAMP1 in iPSC-derived dopaminergic neurons; assay: LAMP1 fluorescence in iPSC-derived dopaminergic neurons; format: cell-based, human; details: A53T a-syn iPSC-derived dopaminergic neurons
Description: A53T a-syn iCell Dopa neurons (catalog #R1109) and isogenic control iCell Dopa neurons (catalog #R1088) were purchased from Fujifilm Cellular Dynamics (Madison, WI, USA) and cultured as per the manufacturer’s instructions. Briefly, cells were plated in complete maintenance medium provided by the manufacturer on poly-L-ornithine/laminin coated μ plates (ibidi). Cells recovered from thawing for 24 h and then were transduced with AAV-Scramble1.3-RFP or AAV-PDpep1.3-RFP at MOI of 3000 for 48 h at which time media was completely changed. Cells were fixed using 4% PFA at 7 days post-plating.
Confocal images of immunofluorescent staining were acquired with a Zeiss LSM880 confocal microscope equipped with 405, 488, 555, and 639 nm laser lines. All images were taken within the linear range at constant gain and pinhole settings at optimal resolution settings determined by the software. […]
Confocal images of primary cortical neurons, iPSC-derived dopaminergic neurons, and LAMP1 staining within the SN were processed using Imaris software (Oxford instruments). […] Mean pixel intensity per GFP^+ cell (for experiments using GFP-tagged peptides) or RFP^+ cell (for experiments using RFP-tagged peptides) was calculated for a-syn or LAMP1 signal using the software’s surfaces module. […]

## DEEIERQLKALG [PDpep1.3]
[1]
  Effect on a-syn fluorescence in fibroblasts: reduced a-syn fluorescence
[1]; + Bafilomycin A1
  Effect on a-syn levels in presence of Bafilomycin A1: could not reduce a-syn levels
[2]
  Effect on LAMP1 levels, iPSC neurons: LAMP1 levels to those of isogenic controls
